Results published in patent US20200289474A1, “METHODS OF TREATING PAIN WITH A THIAZOLINE ANTI-HYPERALGESIC” (priority 2019, published 2020).

Assays:
[1] = test system: incision-induced hyperalgesia; assay: Brennan protocol, treatment paradigm (established hyperalgesia); format: in vivo, rat
Source text: Two incisional pain models were used to assess Compound 1 effects on hyperalgesia. The first model is referred to as the Brennan model in which, under anesthesia, a 1 cm longitudinal incision to the skin and underlying fascia of a rat hindpaw is made. The second is a variation but is a more invasive procedure in which the skin and muscle are spread apart using forceps which creates a longer-lasting hypersensitivity.
Using the Brennan protocol and a treatment paradigm in rat, Compound 1 (10 and 30 mg/kg PO), morphine (3 mg/kg SC) or vehicle were administered daily at 24 h post-incision, and again at 48 and 72 h post-incision. Mechanical thresholds were obtained at 1 h and 2 h post-dose in all cohorts on all days.

[2] = target: T1, OAT3 (Homo sapiens, UniProt Q8TCC7); assay: transporter inhibition, HEK293 cells, probe accumulation; format: in vitro ADME
T1 construct: expressed in transfected cells; host or cells: HEK293 cells
T1 sequence (Q8TCC7 1-542): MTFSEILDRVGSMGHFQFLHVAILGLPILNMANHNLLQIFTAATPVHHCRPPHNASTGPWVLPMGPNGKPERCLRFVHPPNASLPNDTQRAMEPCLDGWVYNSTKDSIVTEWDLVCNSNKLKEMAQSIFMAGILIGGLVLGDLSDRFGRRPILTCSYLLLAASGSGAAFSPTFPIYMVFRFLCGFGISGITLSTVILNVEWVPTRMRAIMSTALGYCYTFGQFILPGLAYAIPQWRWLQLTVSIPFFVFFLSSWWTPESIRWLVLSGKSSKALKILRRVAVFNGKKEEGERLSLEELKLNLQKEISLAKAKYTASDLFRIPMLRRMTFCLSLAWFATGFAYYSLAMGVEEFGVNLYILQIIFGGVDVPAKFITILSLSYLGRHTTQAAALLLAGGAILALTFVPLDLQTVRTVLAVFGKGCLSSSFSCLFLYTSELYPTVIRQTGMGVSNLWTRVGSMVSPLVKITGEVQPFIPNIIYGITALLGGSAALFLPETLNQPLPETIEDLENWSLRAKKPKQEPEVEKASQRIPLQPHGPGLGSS

[3] = rat pharmacokinetics after single PO dose; format: in vivo; details: for Compound 1 Concentration in Rat Plasma / Compound 1 Concentration in Rat Plasma, Average / mean Cmax / t1/2: 100 mg/kg single PO; for Compound 1 Concentration in Rat Plasma: individual animals
Description: In both assays, a deuterated (Compound 1-d4) internal standard was used.
The objective of this non-GLP study was to determine the pharmacokinetics of Compound 1 after a single oral (gavage) dose in rats, and to determine if Compound 1 undergoes epimerization in the rat. Compound 1 was administered to CD® IGS [Crl:CD(SD)] (Sprague Dawley) rats (5/sex/group) as a single oral gavage dose of 100 mg/kg in a vehicle of 0.5% aqueous HPMC. Rats were dosed at a dose volume of 10 mL/kg body weight.

[4] = stability in plasma; format: in vitro ADME; details: dog plasma
[5] = test system: peroxynitrite (PN); assay: chemical-based assays of peroxynitrite (PN) oxidation; format: biochemical; details: chemical-based assay
[6] = test system: Caco-2 cells; assay: cytotoxicity by lactate dehydrogenase (LDH) release; format: cell-based
[7] = stability in plasma; format: in vitro ADME; details: rat plasma
[8] = test system: MDCKII control cells; assay: cytotoxicity by lactate dehydrogenase (LDH) release; format: cell-based
[9] = test system: STZ-induced mechanical allodynia; assay: STZ-induced diabetic rats, subsequent study; format: in vivo, rat
Description: Experiments were conducted to determine the effect of Compound 1 in streptozotocin (STZ)-induced diabetic rats. In the first experiment, after obtaining mechanical threshold baselines, STZ (50 mg/kg IV) was administered (Day −7). Two days later, blood glucose levels were measured and animals that were hyperglycemic (>250 mg/dL) continued in the study. On Day 0 the baseline for mechanical thresholds prior to dosing with test articles was established for the rats. Compound 1 (10, 30, and 100 mg/kg PO), gabapentin (100 mg/kg PO) or vehicle was then administered daily for 5 days. On Day 0 mechanical thresholds were obtained at 1, 3, and 6 h post-dose. On Day 1 mechanical thresholds were measured immediately prior to dosing and then 3 h post-dose. The same regimen was followed on Day 3.
In a subsequent study, the same STZ paradigm was followed. However, in addition to the 100 mg/kg Compound 1 group, two additional cohorts received the Compound 1 100 mg/kg dose split into two or three doses per day with 50 mg/kg BID and 33 mg/kg TID. In addition to the gabapentin (100 mg/kg PO) group, a separate cohort received duloxetine (30 mg/kg PO). Additionally, in this study mechanical threshold testing was implemented every day immediately prior to dosing and 2 h post-dose for 7 days.

[10] = effect of food on oral bioavailability in rats; format: in vivo, rat
Description: The effect of food on oral bioavailability was determined.

Compound: CC1(C)SC(Nc2ccccc2O)=N[C@@H]1C(=O)O.Cl [Compound 1, (R)-2-(2-hydroxyphenylamino)-5,5-dimethyl-4,5-dihydrothiazole-4-carboxylic acid mono-hydrochloride]
- reversal of hyperalgesia ([1]; 10 and 30 mg/kg PO, Day 2, 1 h and 2 h post-dosing): full reversal of hyperalgesia
- hyperalgesia ([1]; 10 and 30 mg/kg PO, Day 3 prior to dosing): did not show hyperalgesia
- hyperalgesia ([1]; low- and high-dose, Day 3 after dosing): prevented/reversed hyperalgesia completely
- reversal of hyperalgesia ([1]; low-dose (10 mg/kg PO), Day 1, 2 h post-dose): partial reversal
- inhibition [2]: weakly inhibits
- Compound 1 Concentration in Rat Plasma ([3]; Female, 0.5 h post-dose, mono-hydrochloride, 100 mg/kg): 34.3 µg/mL
- Compound 1 Concentration in Rat Plasma, Average ([3]; Female, 1 h post-dose): 60.1 µg/mL
- Compound 1 Concentration in Rat Plasma ([3]; Female, 1 h post-dose, mono-hydrochloride, 100 mg/kg): 53.9 µg/mL
- Compound 1 Concentration in Rat Plasma, Average ([3]; Female, 4 h post-dose): 22.6 µg/mL
- Compound 1 Concentration in Rat Plasma ([3]; Male, 0.5 h post-dose, mono-hydrochloride, 100 mg/kg): 13.8 µg/mL
- Compound 1 Concentration in Rat Plasma, Average ([3]; Male, 1 h post-dose): 14.9 µg/mL
- Compound 1 Concentration in Rat Plasma, Average ([3]; Male, 2 h post-dose): 14.3 µg/mL
- Compound 1 Concentration in Rat Plasma ([3]; Male, 2 h post-dose, mono-hydrochloride, 100 mg/kg): 16.3 µg/mL
- Compound 1 Concentration in Rat Plasma ([3]; Male, 8 h post-dose, mono-hydrochloride, 100 mg/kg): 1.61 µg/mL
- Compound 1 Concentration in Rat Plasma ([3]; Male, 24 h post-dose): BQL
- mean Cmax ([3]; females): 60000 ng/mL
- t1/2 ([3]; females): 4 h
- mean Cmax ([3]; males): 15000 ng/mL
- t1/2 ([3]; males): 7 h
- epimerization in vivo (chiral column) ([3]; rat plasma): did not provide any evidence of epimerization
- stability in plasma [4]: stable
- PN-mediated oxidation of small-molecule organic substrates such as luminol [5]: inhibits PN-mediated oxidation
- cytotoxicity (LDH release) [6]: less than 25%
- stability in plasma [7]: stable
- percent cytotoxicity (LDH release) ([8]; 100 μM): 31.3%
- percent cytotoxicity (LDH release) ([8]; 600 μM): 33.6%
- difference between dosing regimens ([9]; 100 mg/kg QD vs 50 mg/kg BID vs 33 mg/kg TID): no clear difference
- reversal of allodynia ([9]; 100 mg/kg QD, 50 mg/kg BID, 33 mg/kg TID PO, 7 days, statistical significance from Day 1): reversed allodynia
- peak plasma concentrations, fasted compared to fed ([10]; 10 mg/kg oral): significantly increased peak plasma concentrations
- differences in pharmacokinetic properties, fed vs fasted ([10]; 100 mg/kg oral): No statistically significant differences
